The source of these data is patent US20230374038A1, “MODULATORS OF CYSTIC FIBROSIS TRANSMEMBRANE CONDUCTANCE REGULATOR” (VERTEX PHARMACEUTICALS INCORPORATED, priority 2020, published 2023).

The target in the assay is T1, CFTR (Homo sapiens, UniProt P13569, DEL508-508).
T1 construct: endogenous in cells; host or cells: primary human bronchial epithelial cells, F508del/MF genotype
Briefly: HBE Assay: Ussing chamber assay of CFTR-mediated short-circuit currents in F508del/MF-HBE cells with 1 μM Ivacaftor. It counts as cell-based. The conditions noted are these: 20% human serum; for EC50 / HBE Max Activity / Emax / HBE Activity at 10 μM (%): 18-24 hours; for HBE Activity at 10 μM: single fixed concentration of 10 μM; for Emax: compared to known Vertex corrector with 18 μM Tezacaftor and 1 μM Ivacaftor, read-out: HBE Max activity (%); for HBE Activity at 10 μM (%): single fixed concentration of 10 μM with 1 μM Ivacaftor. The gist of the method: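 F508del/MF-HBE cells at air-liquid interface >14 days were incubated 18-24 h at 37° C with corrector (concentration range or fixed 10 μM) plus 1 μM Ivacaftor in 20% human serum, compounds kept throughout. Ussing chamber, Vhold=0 mV, 37° C, apical amiloride 30 μM; ISC (μA/cm^2) from peak 20 μM forskolin response to steady state after CFTR inhibitor cocktail.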

[1] abbreviates: range of concentrations with 1 μM Ivacaftor.

T1 sequence (P13569 with tags, fused parts or gaps DEL508-508): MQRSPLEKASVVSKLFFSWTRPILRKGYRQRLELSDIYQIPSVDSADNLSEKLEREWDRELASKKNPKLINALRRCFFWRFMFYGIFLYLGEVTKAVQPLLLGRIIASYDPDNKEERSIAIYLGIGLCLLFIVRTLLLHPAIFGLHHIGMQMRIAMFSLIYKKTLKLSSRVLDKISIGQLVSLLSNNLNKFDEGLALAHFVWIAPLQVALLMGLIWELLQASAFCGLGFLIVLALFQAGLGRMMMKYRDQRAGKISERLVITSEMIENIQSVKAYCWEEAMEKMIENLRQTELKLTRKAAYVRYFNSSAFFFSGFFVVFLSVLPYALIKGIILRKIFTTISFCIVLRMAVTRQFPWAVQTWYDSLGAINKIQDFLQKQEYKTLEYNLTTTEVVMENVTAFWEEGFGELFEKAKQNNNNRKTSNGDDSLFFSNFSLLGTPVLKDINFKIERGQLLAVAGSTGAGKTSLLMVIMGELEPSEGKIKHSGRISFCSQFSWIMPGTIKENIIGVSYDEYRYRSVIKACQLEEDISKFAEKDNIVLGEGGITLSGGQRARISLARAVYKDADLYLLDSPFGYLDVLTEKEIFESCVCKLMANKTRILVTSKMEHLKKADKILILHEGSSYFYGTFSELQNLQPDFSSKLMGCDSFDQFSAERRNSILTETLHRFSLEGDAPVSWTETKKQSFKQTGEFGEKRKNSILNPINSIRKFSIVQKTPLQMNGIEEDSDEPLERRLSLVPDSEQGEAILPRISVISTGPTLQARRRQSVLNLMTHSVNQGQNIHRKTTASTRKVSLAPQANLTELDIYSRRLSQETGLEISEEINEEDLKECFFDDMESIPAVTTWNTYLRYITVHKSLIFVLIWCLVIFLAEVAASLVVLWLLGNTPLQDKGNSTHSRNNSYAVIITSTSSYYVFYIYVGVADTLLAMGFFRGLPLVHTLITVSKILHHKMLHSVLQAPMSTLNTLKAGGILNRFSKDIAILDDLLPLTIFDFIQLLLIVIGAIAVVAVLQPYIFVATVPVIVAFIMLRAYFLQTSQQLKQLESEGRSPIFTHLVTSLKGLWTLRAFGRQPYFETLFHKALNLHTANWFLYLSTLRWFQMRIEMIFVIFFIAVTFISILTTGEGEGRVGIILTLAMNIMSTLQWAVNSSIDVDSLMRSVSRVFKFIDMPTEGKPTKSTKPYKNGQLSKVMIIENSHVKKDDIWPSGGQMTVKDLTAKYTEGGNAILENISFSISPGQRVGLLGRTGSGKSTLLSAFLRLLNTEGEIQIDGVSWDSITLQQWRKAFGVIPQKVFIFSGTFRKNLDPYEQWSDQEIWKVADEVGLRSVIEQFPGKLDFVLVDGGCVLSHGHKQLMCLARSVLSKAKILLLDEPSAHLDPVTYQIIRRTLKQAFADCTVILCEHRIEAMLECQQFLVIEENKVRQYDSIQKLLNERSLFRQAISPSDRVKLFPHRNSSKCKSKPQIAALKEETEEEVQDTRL

As to `Cc1cccc(CC2CCCCC2)c1-c1nc2nc(c1C)OC[C@@H](CC(C)(C)C)N(Cc1ncccc1N1CCOCC1)C(=O)c1cccc(c1)S(=O)(=O)N2` (atropisomer, axis not shown) [Compound 310], under “with 1 μM Ivacaftor”, the EC50 – broadly, the concentration needed to bring the measured effect to its halfway point – was below 1000 nM and the “HBE Max Activity” value is “+++ (+++ is >600%)”.
In the case of `Cc1cccc(CC2CCCCC2)c1-c1nc2nc(c1C)OC[C@@H](CC(C)(C)C)NC(=O)c1cccc(c1)S(=O)(=O)N2` (atropisomer, axis not shown) [Compound 311], for the setting “with 1 μM Ivacaftor”, the EC50 was below 1000 nM and the “HBE Max Activity” value is listed as “+++ (+++ is >600%)”.
In the same order, the values of `Cc1cccc(CC2CCCCC2)c1-c1nc2nc(c1C)OC[C@@H](CC(C)(C)C)NC(=O)c1cccc(c1)S(=O)(=O)N2` (atropisomer, axis not shown) [Compound 312] are below 1000 nM and “++ (++ is 30-60%)”.
In the same order, the values of `Cc1cccc(CC(C)C)c1-c1nc2nc(c1C)OC[C@@H](CC(C)(C)C)N(Cc1cnc(C3CCOCC3)cn1)C(=O)c1cccc(c1)S(=O)(=O)N2` (atropisomer, axis not shown) [Compound 313] are below 1000 nM and “+++ (+++ is >600%)”.
With `Cc1cccc(CC(C)C)c1-c1nc2nc(c1C)OC[C@@H](CC(C)C)N(Cc1cnc(C3CCOCC3)cn1)C(=O)c1cccc(c1)S(=O)(=O)N2` (atropisomer, axis not shown) [Compound 314], under “with 1 μM Ivacaftor”, the EC50 is below 1000 nM and the “HBE Max Activity” value was “+++ (+++ is >600%)”.
Consider `Cc1cccc(CC(C)C)c1-c1nc2nc(c1C)OC[C@@H](CC(C)C)N(Cc1cnc(C3CCOCC3)cn1)C(=O)c1cccc(c1)S(=O)(=O)N2` (atropisomer, axis not shown) [Compound 315], for which the “HBE Activity at 10 μM” value (with 1 μM Ivacaftor) is on record as “+++ (+++ is >600%)”.
With `Cc1cccc(C(C)C)c1-c1nc2nc(c1C)OC[C@@H](CC(C)(C)C)N(Cc1cnc(C3CCOCC3)cn1)C(=O)c1cccc(c1)S(=O)(=O)N2` (atropisomer, axis not shown) [Compound 318], the “HBE Activity at 10 μM” value (with 1 μM Ivacaftor) is “+++ (+++ is >600%)”.
Turning to `Cc1cccc(C(C)C)c1-c1nc2nc(c1C)OC[C@@H](CC(C)(C)C)N(Cc1cnc(C3CCOCC3)cn1)C(=O)c1cccc(c1)S(=O)(=O)N2` (atropisomer, axis not shown) [Compound 319], the “HBE Activity at 10 μM” value (with 1 μM Ivacaftor) was “+++ (+++ is >600%)”.
Take `Cc1cccc(C2CC2)c1-c1nc2nc(c1C)OC[C@@H](CC(C)(C)C)N(Cc1cnc(C3CCOCC3)cn1)C(=O)c1cccc(c1)S(=O)(=O)N2` (atropisomer, axis not shown) [Compound 320]: under “with 1 μM Ivacaftor”, the EC50 is below 1000 nM and the “HBE Max Activity” value is “+++ (+++ is >600%)”.
On to `Cc1cccc(OC(C)C)c1-c1nc2nc(c1C)OC[C@@H](CC(C)(C)C)N(Cc1cncc(N(C)CC(C)(C)C)n1)C(=O)c1cccc(c1)S(=O)(=O)N2` (atropisomer, axis not shown) [Compound 332], for which, under setting [1], the EC50 is below 1000 nM. In addition, the Emax (with 1 μM Ivacaftor) was above 60%.
Regarding `CCOc1cnc(CN2C(=O)c3cccc(c3)S(=O)(=O)Nc3nc(c(C)c(-c4c(C)cccc4CC(C)C)n3)OC[C@H]2CC(C)(C)C)nc1` (atropisomer, axis not shown) [Compound 339], under setting [1], the EC50 was below 1000 nM. For the same molecule, the Emax (with 1 μM Ivacaftor) is above 60%.
Take `Cc1cccc(CC(C)(C)C)c1-c1nc2nc(c1C)OC[C@@H](CC(C)(C)C)N(Cc1ncc(OC(C)C)cn1)C(=O)c1cccc(c1)S(=O)(=O)N2` (atropisomer, axis not shown) [Compound 351]: the “HBE Activity at 10 μM (%)” value is recorded as “+++ (+++ is >60%)”. The EC50 under setting [1] was below 1000 nM. For the same molecule, the Emax (with 1 μM Ivacaftor) was above 60%.
Consider `Cc1cccc(CC(C)(C)C)c1-c1nc2nc(c1C)OC[C@@H](CC(C)(C)C)N(Cc1ncc(OC3CCC3)cn1)C(=O)c1cccc(c1)S(=O)(=O)N2` (atropisomer, axis not shown) [Compound 353], for which the “HBE Activity at 10 μM (%)” value is listed as “+++ (+++ is >60%)”.
